Assay results reported in PubChem BioAssay AID2060497 (Molecular Pharmacology Branch, DTP, NCI, 2025).

System: 317291-083-R-J1-PDC complex spheroids, viability
Assay: Anticancer human tumor 317291-083-R-J1-PDC patient-derived soft tissue sarcoma cell line growth inhibition [GQUAD]
Settings: for IC50: curve of first compound; for viability, T/C: stronger effect = lower value
From the text: DNA G-quadruplex Stabilizer Agents in Combinations in Complex Spheroids
A high-throughput screen of multi-cell type tumor spheroids was designed to identify active combinations of DNA G-quadruplex stabilizer agents and targeted small molecules. Complex spheroids include a stromal component modeled by human endothelial cells (HUVEC) and fibroblasts modeled by human mesenchymal stem cells (MSCs). The concentration ranges selected for each drug and investigational agent were based upon clinically achievable concentrations if the clinical Cmax of the agent was known.
Compounds. The drugs and investigational agents: pidnarulex (CX-5461; NSC782164), APTO-253 (NSC789042), BRACO-19 (NSC847499), peposertib (NSC802822), ceralasertib (NSC780249), elimusertib (NSC800525), camonsertib (NSC841442), AZD-1390 (NSC803789), olaparib (NSC753686), talazoparib (NSC767125), ART-558 (NSC835418), sotorasib (NSC818433), MRTX-1133 (NSC836407), SN-38 (NSC673596), topotecan (NSC609699), etoposide (NSC141540), doxorubicin (NSC123127), gemcitabine (NSC613327), 5-fluorouracil (NSC19893), paclitaxel (NSC125973), vemurafenib (NSC761431), panobinostat (NSC761190), R-306465 (JNJ-16241199; NSC773264), adavosertib (NSC754352), TP-3654 (NSC805149), carboplatin (NSC241240), KSQ-4279 (NSC840948), and staurosporine (NSC755774) were obtained from the National Cancer Institute (NCI) Developmental Therapeutics Program Chemical Repository (34). The FDA-approved anticancer drug set is available from the NCI Developmental Therapeutics Program. […] The stock solutions were prepared in dimethyl sulfoxide (DMSO, Sigma-Aldrich, St. Louis, MO, cat. D2650) at 800-fold the tested concentration and stored at -70 degrees C prior to their use. All drugs and investigational agents were tested over a range starting from a high concentration at or near the clinical Cmax and decreasing in half-log increments. If the clinical Cmax for an agent had not been determined, the highest concentration tested was 10 microM.
2.3 Cell Culture. All cells were maintained in an incubator at 37 degrees C and 5% CO2 with 95% humidity. The PDC lines were cultured according to standard operating procedures established by the NCI PDMR. All PDCs were thawed and cultured in Matrigel-coated flasks prepared with a working solution of 1X Ham's F-12 nutrient mix, without supplementation (Invitrogen, cat. 11765054), 100 U/mL penicillin-streptomycin (Invitrogen, cat. 15140122), and 2.5% Matrigel (Corning Inc., cat. 354248) for the first three passages. The 857933-349-R-J2-PDC line was cultured in 6C/Colon 1B media, which includes advanced DMEM/F-12 (Thermo Fisher Scientific, cat. 12634028), 10 mM HEPES (Thermo Fisher Scientific, cat. 15630080), 1X GlutaMAX supplement (Thermo Fisher Scientific, cat. 35050061), 0.1 mg/mL primocin (InvivoGen, cat. ant-pm-2), 10% defined fetal bovine serum, heat inactivated (HyClone Laboratories Inc., cat. SH30070.03HI), 50% L-WRN conditioned media (ATCC, cat. CRL-3276), 1.25 mM N-Acetyl-L-cysteine (Sigma-Aldrich, cat. A9165), 10 mM nicotinamide (Sigma-Aldrich, cat. N0636), 1X B-27 supplement (Thermo Fisher Scientific, cat. 17504044), 1X N-2 supplement (Thermo Fisher Scientific, cat. 17502048), 10 microM Y-27632 dihydrochloride (Tocris Bioscience, cat. 1254), and 50 ng/mL human EGF recombinant protein (Thermo Fisher Scientific, cat. PHG0311). The 485176-168-R4-J1-PDC line was cultured in Panc media, which includes all 6C/Colon 1B media components plus 100 ng/mL human FGF-10 (Thermo Fisher Scientific, cat. 100-26), 500 nM SB-431542 (Selleckchem, cat. S1067), and gastrin (Tocris, cat. 3006).
[…]

[1] = second compound 0.0316 µM, first compound 0.0316 µM
[2] = second compound 0.0316 µM, first compound 0.1 µM
[3] = second compound 0.0316 µM, first compound 0.316 µM
[4] = second compound 0.0316 µM, first compound 1 µM
[5] = second compound 0.0316 µM, first compound 3.16 µM
[6] = second compound 0.0316 µM, first compound 10 µM
[7] = second compound 0.1 µM, first compound 0.0316 µM
[8] = second compound 0.1 µM, first compound 0.1 µM
[9] = second compound 0.1 µM, first compound 0.316 µM
[10] = second compound 0.1 µM, first compound 1 µM
[11] = second compound 0.1 µM, first compound 3.16 µM
[12] = second compound 0.1 µM, first compound 10 µM
[13] = second compound 0.316 µM, first compound 0.0316 µM
[14] = second compound 0.316 µM, first compound 0.1 µM
[15] = second compound 0.316 µM, first compound 0.316 µM
[16] = second compound 0.316 µM, first compound 1 µM
[17] = second compound 0.316 µM, first compound 3.16 µM
[18] = second compound 0.316 µM, first compound 10 µM
[19] = second compound 1 µM, first compound 0.0316 µM
[20] = second compound 1 µM, first compound 0.1 µM
[21] = second compound 1 µM, first compound 0.316 µM
[22] = second compound 1 µM, first compound 1 µM
[23] = second compound 1 µM, first compound 3.16 µM
[24] = second compound 1 µM, first compound 10 µM
[25] = second compound 3.16 µM, first compound 0.0316 µM
[26] = second compound 3.16 µM, first compound 0.1 µM
[27] = second compound 3.16 µM, first compound 0.316 µM
[28] = second compound 3.16 µM, first compound 1 µM
[29] = second compound 3.16 µM, first compound 3.16 µM
[30] = second compound 3.16 µM, first compound 10 µM
[31] = second compound 10 µM, first compound 0.0316 µM
[32] = second compound 10 µM, first compound 0.1 µM
[33] = second compound 10 µM, first compound 0.316 µM
[34] = second compound 10 µM, first compound 1 µM
[35] = second compound 10 µM, first compound 3.16 µM
[36] = second compound 10 µM, first compound 10 µM
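Further: spheroids exposed to compounds for one week before readout.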
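Wherever viability, T/C is given: percent viability relative to DMSO vehicle wells taken as 100%.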

`COc1ncnc(C2CC2)c1-c1ncc2cnn(Cc3ccc(-c4nc(C(F)(F)F)cn4C(C)C)cc3)c2n1` + CN(C)c1ccc(Nc2c3ccc(NC(=O)CCN4CCCC4)cc3nc3cc(NC(=O)CCN4CCCC4)ccc23)cc1 was tested, and the IC50 (second compound 0.0316 µM) was over 10000 nM, the IC50 (second compound 0.1 µM) was over 10000 nM and the IC50 (second compound 0.316 µM) was under 31.6 nM. The IC50 (second compound 1 µM) was under 31.6 nM, the IC50 (second compound 3.16 µM) was under 31.6 nM and the IC50 (second compound 10 µM) was under 31.6 nM. For the same compound, the viability, T/C [1] was 88.5%, the viability, T/C [2] was 77.1% and the viability, T/C [3] was 69%. It also gave a viability, T/C [4] of 70.3%, a viability, T/C [5] of 64.3% and a viability, T/C [6] of 59.9%. The viability, T/C [7] was 79.9%, the viability, T/C [8] was 61.4% and the viability, T/C [9] was 65.9%. For the same compound, the viability, T/C [10] was 61.4%, the viability, T/C [11] was 51.6% and the viability, T/C [12] was 60.2%. For the same compound, the viability, T/C [13] was 48.2%, the viability, T/C [14] was 44.2% and the viability, T/C [15] was 41.9%. It also gave a viability, T/C [16] of 37.4%, a viability, T/C [17] of 37.4% and a viability, T/C [18] of 36.1%. For the same compound, the viability, T/C [19] was 32.4%, the viability, T/C [20] was 50.2% and the viability, T/C [21] was 35.7%. It also gave a viability, T/C [22] of 16.5%, a viability, T/C [23] of 26.6% and a viability, T/C [24] of 17.3%. It also gave a viability, T/C [25] of 33.4%, a viability, T/C [26] of 2.38% and a viability, T/C [27] of 3.48%. For the same compound, the viability, T/C [28] was 1.13%, the viability, T/C [29] was 2.41% and the viability, T/C [30] was 1.37%. It also gave a viability, T/C [31] of 0.61%, a viability, T/C [32] of 0.24% and a viability, T/C [33] of 0.23%. The viability, T/C [34] was 0.23%, the viability, T/C [35] was 0.28% and the viability, T/C [36] was 0.22%.
`O=C(NO)c1cnc(N2CCN(S(=O)(=O)c3ccc4ccccc4c3)CC2)nc1` + CN(C)c1ccc(Nc2c3ccc(NC(=O)CCN4CCCC4)cc3nc3cc(NC(=O)CCN4CCCC4)ccc23)cc1 was tested, and the IC50 (second compound 0.0316 µM) was 120 nM, the IC50 (second compound 0.1 µM) was 134 nM and the IC50 (second compound 0.316 µM) was 78.9 nM. It also gave an IC50 (second compound 1 µM) of under 31.6 nM, an IC50 (second compound 3.16 µM) of under 31.6 nM and an IC50 (second compound 10 µM) of under 31.6 nM. It also gave a viability, T/C [1] of 102%, a viability, T/C [2] of 58.3% and a viability, T/C [3] of 5.38%. For the same compound, the viability, T/C [4] was 0.53%, the viability, T/C [5] was 0.02% and the viability, T/C [6] was 0.56%. It also gave a viability, T/C [7] of 97.1%, a viability, T/C [8] of 64.3% and a viability, T/C [9] of 7.56%. It also gave a viability, T/C [10] of 0.08%, a viability, T/C [11] of 0.71% and a viability, T/C [12] of 0.06%. For the same compound, the viability, T/C [13] was 90.5%, the viability, T/C [14] was 39.5% and the viability, T/C [15] was 5.83%. The viability, T/C [16] was 0.06%, the viability, T/C [17] was 0.09% and the viability, T/C [18] was 0.1%. For the same compound, the viability, T/C [19] was 38.2%, the viability, T/C [20] was 18.5% and the viability, T/C [21] was 1.87%. The viability, T/C [22] was 0.1%, the viability, T/C [23] was 0.06% and the viability, T/C [24] was 0.08%. The viability, T/C [25] was 10.9%, the viability, T/C [26] was 1.33% and the viability, T/C [27] was 0.19%. The viability, T/C [28] was 0.07%, the viability, T/C [29] was 0.12% and the viability, T/C [30] was 0.09%. The viability, T/C [31] was 1.1%, the viability, T/C [32] was 0.76% and the viability, T/C [33] was 0.24%. It also gave a viability, T/C [34] of 0.36%, a viability, T/C [35] of 0.28% and a viability, T/C [36] of 0.21%.
